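Tested at 5 concentrations; 48 h exposure; 96-well plates; endpoints linearly interpolated, else capped at highest concentration. Definition used: TGI = concentration required for complete inhibition of growth.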 Where a SMILES comes first, the peptide text is derived from it.
Experiments:
Test in all cases: NCI anticancer screen, dose series, 48 h
A549 NSCLC = tested on: A549 NSCLC
BT-549 breast = tested on: BT-549 breast
CAKI-1 renal = tested on: CAKI-1 renal
IGROV1 ovarian = tested on: IGROV1 ovarian
K-562 leukemia = tested on: K-562 leukemia
KM12 colon = tested on: KM12 colon
MDA-N = tested on: MDA-N
MOLT-4 leukemia = tested on: MOLT-4 leukemia
NCI-H460 lung = tested on: NCI-H460 lung
NCI-H522 lung = tested on: NCI-H522 lung
SW-620 colon = tested on: SW-620 colon
SF-268 CNS = tested on: SF-268 CNS
T-47D breast = tested on: T-47D breast

Structure (SMILES) | TGI (A549 NSCLC) | TGI (BT-549 breast) | TGI (CAKI-1 renal) | TGI (IGROV1 ovarian) | TGI (K-562 leukemia) | TGI (KM12 colon) | TGI (MDA-N) | TGI (MOLT-4 leukemia) | TGI (NCI-H460 lung) | TGI (NCI-H522 lung) | TGI (SW-620 colon) | TGI (SF-268 CNS) | TGI (T-47D breast)
CS(=O)(=O)O[C@H]1[C@H](O)c2ccccc2[C@@H]1N=[N+]=[N-] | > 100 µM | > 100 µM | > 100 µM | > 100 µM | > 100 µM | > 100 µM | > 100 µM | > 100 µM | > 100 µM | > 100 µM | > 100 µM | – | –
O=C(NCCCN(CCCCN(CCCNC(=O)c1cc(S(=O)(=O)O)cc(O)c1O)C(=O)c1cc(S(=O)(=O)O)cc(O)c1O)C(=O)c1cc(S(=O)(=O)O)cc(O)c1O)c1cc(S(=O)(=O)O)cc(O)c1O | > 100 µM | > 100 µM | > 100 µM | > 100 µM | > 100 µM | > 100 µM | > 100 µM | – | > 100 µM | > 100 µM | > 100 µM | > 100 µM | > 100 µM
COC(=O)[C@]12CSC[C@H]1C[C@H](c1cccc3ccccc13)N2 | > 100 µM | > 100 µM | > 100 µM | > 100 µM | > 100 µM | > 100 µM | > 100 µM | 61.4 µM | > 100 µM | – | > 100 µM | – | > 100 µM
CCOC(=O)/C(=C\NC(C)(C)CO)c1nc2ccccc2[nH]1 | > 100 µM | > 100 µM | > 100 µM | > 100 µM | > 100 µM | > 100 µM | > 100 µM | > 100 µM | > 100 µM | > 100 µM | > 100 µM | > 100 µM | –
CCOC(=O)C(NC(=O)CC)(Nc1ccc(F)cc1F)C(F)(F)F (stereo not drawn) | > 100 µM | > 100 µM | – | > 100 µM | > 100 µM | – | > 100 µM | > 100 µM | – | – | > 100 µM | > 100 µM | > 100 µM
O=C(CN=C(CN(c1ccccc1)c1ccccc1)Oc1ccc(Cl)cc1Cl)n1ccnc1 | > 100 µM | > 100 µM | – | > 100 µM | > 100 µM | > 100 µM | > 100 µM | > 100 µM | > 100 µM | – | > 100 µM | > 100 µM | > 100 µM
CCC(C)C(NC(=O)C(CC(C)C)NC(=O)CNC(=O)C(NC(=O)C1CCCN1C(=O)C(CC(C)C)NC(=O)C(N)Cc1ccccc1)C(C)CC)C(=O)NC(CC(C)C)C(N)=O (stereo not drawn) (H-FLPIGLIL-NH2; configuration not given here) | > 75 µM | > 75 µM | > 75 µM | > 75 µM | > 75 µM | > 75 µM | > 75 µM | > 75 µM | – | > 75 µM | > 75 µM | > 75 µM | > 75 µM
CC(C(=O)n1ccnc1)N1c2ccccc2Sc2ccccc21 (stereo not drawn) | > 100 µM | > 100 µM | – | > 100 µM | > 100 µM | > 100 µM | > 100 µM | > 100 µM | > 100 µM | – | > 100 µM | > 100 µM | > 100 µM
COC(=O)Cn1c(=O)oc2nc(-c3ccccc3)cc(C(F)(F)F)c21 | > 100 µM | > 100 µM | > 100 µM | > 100 µM | – | > 100 µM | > 100 µM | 71.3 µM | > 100 µM | > 100 µM | > 100 µM | > 100 µM | > 100 µM
Cc1ccccc1Nc1nc(NNC(=O)Cc2ccccc2)nc(NNC(=O)c2ccncc2)n1 | – | > 10 µM | > 10 µM | > 10 µM | > 10 µM | > 10 µM | > 10 µM | > 10 µM | > 10 µM | – | – | > 10 µM | > 10 µM
CCCCC1(O)CC2CC1C(C)C2(C)C (stereo not drawn) | > 100 µM | > 100 µM | > 100 µM | > 100 µM | > 100 µM | > 100 µM | > 100 µM | > 100 µM | – | – | > 100 µM | > 100 µM | –
Cc1ccsc1C(=S)Nc1ccc(Cl)c(/C=N/OC(C)C)c1 | > 100 µM | > 100 µM | > 100 µM | > 100 µM | – | > 100 µM | > 100 µM | 35.2 µM | > 100 µM | > 100 µM | > 100 µM | > 100 µM | > 100 µM
CN(C)CC1CCC/C(=C\c2ccccc2)C1=O (stereo not drawn) | 38.2 µM | 23.1 µM | 3.2 µM | 13.9 µM | – | 2.59 µM | 8.93 µM | > 100 µM | 16.9 µM | 2.95 µM | 3.07 µM | 7.44 µM | 4.35 µM
C=C(Cl)C(C)(Cl)CCC(Cl)C(C)C (stereo not drawn) | > 100 µM | > 100 µM | > 100 µM | > 100 µM | > 100 µM | > 100 µM | > 100 µM | > 100 µM | > 100 µM | > 100 µM | > 100 µM | > 100 µM | –
CCOc1cccc(-c2cc(=O)c3cc4c(cc3[nH]2)OCO4)c1 | 28.9 µM | > 100 µM | 9.67 µM | > 100 µM | – | – | > 100 µM | > 100 µM | > 61.8 µM | 0.684 µM | > 100 µM | > 82.1 µM | > 100 µM

— PubChem BioAssay (NCI)
